Results as given in paper PMC8662641, “Site-Specific Labeling of Endogenous Proteins Using CoLDR Chemistry” (Journal of the American Chemical Society, 2021).

Columns and labels:
BTK = BTK (Homo sapiens, UniProt Q06187); parameters: BTK kinase domain was expressed and purified as previously reported; made in house; method as in Reddi et al., J. Am. Chem. Soc. 2021, 143 (13), 4979–4992; settings: ref Reddi et al., J. Am. Chem. Soc. 2021, 143 (13), 4979–4992; cited from earlier work
BTK-1h = biological target: T1, BTK-1h (Homo sapiens, UniProt Q06187); assay: High-throughput screening with 1h-labeled BTK; type: binding
T1 construct: The BTK kinase domain was diluted to 2 μM in the buffer, and 2 μM 1h was added; made in house
T1 sequence (Q06187 402-655): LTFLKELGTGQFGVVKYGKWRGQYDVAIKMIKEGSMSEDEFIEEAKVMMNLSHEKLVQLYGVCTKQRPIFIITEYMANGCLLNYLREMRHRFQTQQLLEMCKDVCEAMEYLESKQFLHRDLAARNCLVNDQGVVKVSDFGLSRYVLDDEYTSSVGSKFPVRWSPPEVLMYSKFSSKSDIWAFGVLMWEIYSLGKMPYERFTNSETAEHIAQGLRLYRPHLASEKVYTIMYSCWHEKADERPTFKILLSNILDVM
Protocol: The collection was composed of BTK binding compounds obtained in our previous luminescence screen[37] (Data set S2). […] The resulting BTK-1h (50 μL) was added to the inhibitors.

[1] = Dataset S2A, 200 μM compound, BTK-1h, 32 °C, 10 min
[2] = Dataset S2B, 200 μM inhibitor added to BTK-1h (2 μm)

Chain of BTK (Q06187 402-655 limits assumed): as the sequence (Q06187 402-655) above

Row | SMILES | BTK Inhibition reported in luminescence assay* (BTK) | FI (650)/FI (620) (BTK-1h; [1]) | FI (BTK-1h)/FI (BTK-1h+Inhibitor) at 620 nm (BTK-1h; [1]) | FI (BTK-1h)/FI (BTK-1h+Inhibitor) at 620 nm (BTK-1h; [2])
1 | Cc1c[nH]c2nc(Nc3ccc(N4CCN(C)CC4)c(F)c3)nc(-c3cccc(CC#N)c3)c12 [PCM-0215633-001] | 92.4 | 1.1215 | 1.062 | –
2 | CC(=O)Nc1nc(-c2cccc(NS(=O)(=O)c3cccc4c(N(C)C)cccc34)c2)cs1 [PCM-0215679-001] | 97.3 | 1.491 | 1.033 | –
3 | O=S(=O)([O-])c1ccc2cc(N=Nc3cc(S(=O)(=O)[O-])c4cccnc4c3O)ccc2c1.[Na+].[Na+] [PCM-0215685-001] | 54.1 | 1.281 | 1.027 | –
4 | O=C([O-])CCN1C(=O)/C(=C/c2ccc(-c3ccc([N+](=O)[O-])cc3)o2)SC1=S.[K+] [PCM-0215696-001] | 59.5 | 0.9958 | 1.02 | –
5 | O=[N+]([O-])c1ccc(Sc2cccc[n+]2[O-])c2nonc12 [PCM-0215705-001, NSC228155] | 73.4 | 7.1 | 1.02 | 7.1
6 | Cl[Te]1(Cl)(Cl)OCCO1.N [PCM-0215721-001] | 98.6 | 1.1548 | 1.038 | –
7 | CN1c2ccccc2C(=O)Nc2cnc(Nc3ccc(N4CCC(O)CC4)cc3)nc21 [PCM-0215745-001] | 93.8 | 1.794 | 1.194 | –
8 | COc1ccc(-c2nc(-c3cc(C(F)(F)F)cc(C(F)(F)F)c3)n(Cc3ccc(C(N)=O)cc3)c2-c2ccc(OC)cc2)cc1 [PCM-0215748-001] | 57.1 | 0.9815 | 1.0289 | –
9 | COc1ccc(CC(=O)Nc2nc3c(s2)CCc2ccccc2-3)cc1OC [PCM-0215753-001] | 55.9 | 0.9809 | 1.022 | –
10 | Cc1cc(O)c(-c2ccc([C@@H](C)CN)cc2)c2c1[nH]c(=O)c1sccc12 [PCM-0215772-001] | 70.3 | 1.102 | 1.063 | –
11 | CC(C)(C)c1cc(NC(=O)Nc2ccc(Oc3ccnc4[nH]c(=O)cnc34)cc2F)n(-c2ccccc2)n1 [PCM-0215780-001] | 61.4 | 1.123 | 1.039 | –
12 | C=CC(=O)N1CC[C@@H](Oc2nc(Nc3ccc(N4CCC(N5CCN(C)CC5)CC4)cc3)c(C(N)=O)nc2CC)C1 [PCM-0215788-001] | 91 | 1.046 | 1.04 | –
13 | Cn1cc(C2=C(c3cccc(N)c3)C(=O)NC2=O)c2ccccc21 [PCM-0215795-001] | 80.3 | 1.701 | 1.062 | –
14 | OC1CCC(Oc2cccc3cnc(Nc4ccc5nc[nH]c5c4)nc23)CC1 (centres unmarked) [PCM-0215798-001] | 66.2 | 1.285 | 1.0276 | –
15 | Cc1cc(C(=O)Nc2nc3cccc(Cl)c3n2[C@@H]2CCCCN(C(=O)/C=C/CN(C)C)C2)ccn1 [PCM-0215804-001] | 73.8 | 1.045 | 1.069 | –
16 | O=[N+]([O-])c1ccc(Nc2ccccc2-c2ccccc2)c2nonc12 [PCM-0215806-001] | 74.1 | 1.017 | 1.01 | –
17 | COCCCc1sc(-c2ccccc2)nc1C(=O)Nc1ccccc1-c1nc2cc(CN3CCCC3)cnc2s1.Cl [PCM-0215812-001] | 57.9 | 0.6133 | 1.029 | –
18 | O=C(c1ccccc1O)c1[nH]c(Cl)c(Cl)c1-n1c(C(=O)c2ccccc2O)cc(Cl)c1Cl [PCM-0215850-001] | 117.4 | 1.151 | 1.016 | –
19 | CC/C(=C(/c1ccc(/C=C/C(=O)O)cc1)c1ccc2[nH]ncc2c1)c1ccc(F)cc1Cl [PCM-0216010-001] | 81.1 | 1.58 | 1.142 | –
20 | Cc1nc(Nc2ccc(F)cc2)nc(N2CCc3ccccc3C2C)c1C.Cl (centres unmarked) [PCM-0216015-001] | 79.3 | 1.147 | 1.02 | –
21 | Cc1cnc(C(=O)N[C@H]2CCCCC/C=C\[C@@H]3C[C@@]3(C(=O)NS(=O)(=O)C3CC3)NC(=O)[C@@H]3C[C@@H](Oc4nc5ccccc5c5ccccc45)CN3C2=O)cn1 [PCM-0216057-001] | 53.3 | 0.9612 | 1.053 | –
22 | COS(=O)(=O)[O-].C[n+]1c2ccccc2nc2ccccc21 [PCM-0216061-001] | 64.9 | 1.059 | 1.045 | –
23 | COc1c(-c2ccc3cc(NS(C)(=O)=O)ccc3c2)cc(-n2ccc(=O)[nH]c2=O)cc1C(C)(C)C [PCM-0216081-001] | 73.4 | 0.9511 | 1.031 | –
24 | Nc1ccc(O)cc1 [PCM-0216110-001] | 82.6 | 1.311 | 1.005 | –
25 | Cn1cc(-c2cc(Oc3cc(F)c(NC(=O)C4(C(=O)Nc5ccccc5)CC4)cc3F)ccn2)cn1 [PCM-0216116-001] | 88.8 | 1.3565 | 1.092 | –
26 | CC(C)=CCc1cc2c(cc1O)O[C@H](c1ccc(O)cc1)CC2=O [PCM-0216180-001] | 54.1 | 1.0081 | 1.015 | –
27 | CCCCCC/C=C\CCCCCCCc1cccc(O)c1C(=O)O [PCM-0216327-001] | 84.2 | 3.101 | 1.308 | –
28 | CC(C)=CCC/C(C)=C/Cc1c(O)c(CC=C(C)C)c2c(c1O)C(=O)C1=C[C@@H]3C[C@H]4C(C)(C)O[C@@](C/C=C(/C)C(=O)O)(C3=O)[C@@]14O2 [PCM-0216347-001] | 100.4 | 1.074 | 1.011 | –
29 | COc1cc(-c2oc3cc(O)cc(O)c3c(=O)c2O)ccc1O [PCM-0216402-001] | 73.4 | 1.5271 | 1.051 | –
30 | O=c1cc(-c2ccc(O)cc2)oc2cc(O)c(O)c(O)c12 [PCM-0216408-001, Scutellarein] | 70.3 | 4.394 | 1.081 | 4.394
